Test results taken from patent US12448388B2, “PRMT5 inhibitors and uses thereof” (Gilead Sciences, Inc., priority 2023, dated 2025).
Where two headings read alike, the source gives them in different places.

Tests used:
Assay type in all cases: cell-based
[1] = Cell viability assay (CellTiter-Glo, 7 days), HCT116 WT; conditions: human, HCT116 WT cells, 7 days of treatment, CTG
Procedure: Control compounds were analyzed in parallel each time for quality control. In Brief, on Day -1, a serial dilution of stock compounds in DMSO was performed using BioMek liquid handlers and dispensed using Echo acoustic dispenser into 384 well plates. Both tool compounds and sample compounds were spotted in the same plate for a dose response of PRMT5 inhibitors. Compound plates were stored as frozen until the cells were ready for seeding. […] After equilibrating the plate in room temperature, the cells were incubated for 7 days inside the sealed incubator set at 37° C. with 90% humidity and 5% CO2. On Day 7, the viability of cells was measured using a CTG assay kit (CellTitre-Glo;Promega cat no. G7573). Shortly, 40 μl per well of luminescent cell viability assay reagent were dispensed using EL460 liquid dispenser 5 μl cassette. CTG luminescence signal was measured using an EnVision plate reader (PerkinElmer) in accordance with manufacturer's instruction. […] Selectivity with * is artificially high due to limited solubility of the compound hampering accurate measurement of WT CC50.

[2] = tested on: HCT116 MTAP-deleted cell lines; assay: Cell viability assay (CellTiter-Glo, 7 days), HCT116 MTAP-deleted; set-up: CC50 selectivity: unit not given beside the values; conditions: for Selectivity: HCT116 WT CC50 versus HCT116 MTAP^del CC50
Summary of the method: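 Read-out was CellTiter-Glo luminescence after a 7-day incubation (37 °C, 5% CO2) of HCT116 cells, MTAP-deleted or WT, on dose-response compound plates. CC50 values come from each line; where marked *, selectivity is overstated because poor solubility impaired the WT CC50 measurement.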

[3] = tested on: Symmetric Di-methyl Arginine (SDMA) signal (PRMT5 inhibition) in HCT116 MTAP-deleted cells; assay: Symmetric di-methyl arginine image-based high content screen assay (SDMA assay), HCT116 MTAP-deleted; conditions: for EC50 selectivity: HCT116 WT vs HCT116 MTAP-deleted; for EC50: class symbols
Summary of the method: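 Read-out is imaging of per-cell mean SDMA immunofluorescence (Alexa 488), with cells segmented by DAPI. Cells, MTAP-deleted or wild-type HCT116, were exposed to compound for 3 days at 37 °C before fixation. EC50 derived by 4-parameter non-linear logistic regression.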

[4] = Homo sapiens, HCT-116, 168 h, HCT116 MTAP-deleted, 7 days of treatment, CTG, read-out: CC50-HCT116-MTAP^del
[5] = Homo sapiens, HCT-116, cell viability assay, HCT116 MTAP-deleted, class symbols, read-out: CC50
[6] = Homo sapiens, HCT-116, HCT116 MTAP-deleted

SMILES	CC50 [2, 5] [nM]	EC50 selectivity [3]	EC50 [3, 6] [nM]	other results
Cc1cc2nc(N)c3cncn3c2cc1C(=O)N1CCC[C@@H]2Oc3cc(C(F)(F)F)ccc3[C@@H]21 [Ff-368, (4-amino-7-methylimidazo[1,5-a]quinoxalin-8-yl)((4aS,9bS)-7-(trifluoromethyl)-3,4,4a,9b-tetrahydrobenzofuro[3,2-b]pyridin-1(2H)-yl)methanone]	< 100	47	≤ 1	CC50 at 7 days [1]: 178 nM; Selectivity [2]: 59; CC50 [2, 4]: 3 nM
Cc1ncn2c1c(N)nc1cnc(C(=O)N3CC[C@H]4C[C@@H]3c3ccc(OC(F)(F)F)cc3O4)cc12 [Ff-632, (4-amino-3-methylimidazo[1,5-a]pyrido[3,4-e]pyrazin-8-yl)((2S,6R)-9-(trifluoromethoxy)-3,4-dihydro-2H-2,6-methanobenzo[b][1,5]oxazocin-5(6H)-yl)methanone]	< 100			CC50 at 7 days [1]: 1680 nM; Selectivity [2]: 93; plasma-adjusted CC50 (paCC50) ([2]; HCT-116, paCC50 = CC50-HCT116-MTAP^del * (% free CCM/% free human plasma)): 270 nM; CC50 [2, 4]: 18 nM
Cc1ncn2c1c(N)nc1cnc(C(=O)N3CC[C@H]4C[C@@H]3c3ccc(C(F)(F)F)c(F)c3O4)cc12 [Ff-633, (4-amino-3-methylimidazo[1,5-a]pyrido[3,4-e]pyrazin-8-yl)((2S,6R)-10-fluoro-9-(trifluoromethyl)-3,4-dihydro-2H-2,6-methanobenzo[b][1,5]oxazocin-5(6H)-yl)methanone]	< 100	82	1 to 5	CC50 at 7 days [1]: 2080 nM; Selectivity [2]: 104; CC50 [2, 4]: 20 nM
Cc1nc(C)n2c1c(N)nc1ccc(C(=O)N(C)[C@@H]3COCc4cc(Br)ccc43)cc12 [Fg-14, (S)-4-amino-N-(7-bromoisochroman-4-yl)-N,1,3-trimethylimidazo[1,5-a]quinoxaline-8-carboxamide]	100 to 1000	158	1 to 5	
Nc1nc2ccc(C(=O)N(Cc3ccc(C(F)(F)F)cn3)C34CC(C3)C4)cc2c2cncn12 [Fg-15, 5-amino-N-(bicyclo[1.1.1]pentan-1-yl)-N-((5-(trifluoromethyl)pyridin-2-yl)methyl)imidazo[1,5-c]quinazoline-9-carboxamide]	> 1000	8	> 5	
Nc1nc2ccc(C(=O)N(Cc3cc4ccccn4n3)C34CC(C3)C4)cc2c2cncn12 [Fg-16, 5-amino-N-(bicyclo[1.1.1]pentan-1-yl)-N-(pyrazolo[1,5-a]pyridin-2-ylmethyl)imidazo[1,5-c]quinazoline-9-carboxamide]	> 1000	6	> 5	
Cc1nc(C)n2c1c(N)nc1ccc(C(=O)N(C)[C@@H]3COc4cc(C(F)(F)F)ccc43)cc12 [Fg-18, (S)-4-amino-N,1,3-trimethyl-N-(6-(trifluoromethyl)-2,3-dihydrobenzofuran-3-yl)imidazo[1,5-a]quinoxaline-8-carboxamide]	100 to 1000	275	1 to 5	
Cc1ncn2c1c(N)nc1ccc(C(=O)N3C[C@@H](C)O[C@@H]4Cc5cc(C(F)(F)F)ccc5[C@@H]43)cc12 [Fg-35, (4-amino-3-methylimidazo[1,5-a]quinoxalin-8-yl)((2R,4aS,9aR)-2-methyl-7-(trifluoromethyl)-2,3,9,9a-tetrahydroindeno[2,1-b][1,4]oxazin-4(4aH)-yl)methanone]	< 100	151	1 to 5	
C[C@H]1CN(C(=O)c2cc3c(cc2F)nc(N)c2cncn23)[C@H]2c3ccc(C(F)(F)C(F)(F)F)cc3C[C@H]2O1 [Fg-38, (4-amino-7-fluoroimidazo[1,5-a]quinoxalin-8-yl)((2S,4aS,9aR)-2-methyl-7-(perfluoroethyl)-2,3,9,9a-tetrahydroindeno[2,1-b][1,4]oxazin-4(4aH)-yl)methanone]	< 100	31	1 to 5	
Nc1nc2cc(F)c(C(=O)N3CCC[C@@H]4Oc5cc(C(F)(F)C(F)(F)F)ncc5[C@@H]43)cc2n2cncc12 [Fg-40, (4-amino-7-fluoroimidazo[1,5-a]quinoxalin-8-yl)((4aS,9bS)-7-(perfluoroethyl)-3,4,4a,9b-tetrahydrofuro[3,2-b:4,5-c′]dipyridin-1(2H)-yl)methanone]	< 100	92	≤ 1	
Cc1ncn2c1c(N)nc1cc(F)c(C(=O)N3CCC[C@@H]4Oc5cc(C(F)(F)C(F)(F)F)ncc5[C@@H]43)cc12 [Fg-41, (4-amino-7-fluoro-3-methylimidazo[1,5-a]quinoxalin-8-yl)((4aS,9bS)-7-(perfluoroethyl)-3,4,4a,9b-tetrahydrofuro[3,2-b:4,5-c′]dipyridin-1(2H)-yl)methanone]	< 100	42	1 to 5	
Nc1nc2cnc(C(=O)N3CCC[C@@H]4Oc5cc(S(F)(F)(F)(F)F)ccc5[C@@H]43)cc2n2cncc12 [Fg-42, (4-aminoimidazo[1,5-a]pyrido[3,4-e]pyrazin-8-yl)((4aS,9bS)-7-(pentafluoro-16-sulfaneyl)-3,4,4a,9b-tetrahydrobenzofuro[3,2-b]pyridin-1(2H)-yl)methanone]		57		CC50 [2]: < 100 nM; CC50 selectivity [2]: 38; EC50 ([3]; HCT116 MTAP-deleted): ≤ 1 nM
Nc1nc2cnc(C(=O)N3C[C@@H](F)C[C@@H]4Oc5cc(OC(F)(F)F)ccc5[C@@H]43)cc2n2cncc12 [Fg-44, (4-aminoimidazo[1,5-a]pyrido[3,4-e]pyrazin-8-yl)((3S,4aS,9bS)-3-fluoro-7-(trifluoromethoxy)-3,4,4a,9b-tetrahydrobenzofuro[3,2-b]pyridin-1(2H)-yl)methanone]	< 100	119	≤ 1	
Cc1ncn2c1c(N)nc1cnc(C(=O)N3C[C@@H](F)C[C@@H]4Oc5cc(OC(F)(F)F)ccc5[C@@H]43)cc12 [Fg-46, (4-amino-3-methylimidazo[1,5-a]pyrido[3,4-e]pyrazin-8-yl)((3S,4aS,9bS)-3-fluoro-7-(trifluoromethoxy)-3,4,4a,9b-tetrahydrobenzofuro[3,2-b]pyridin-1(2H)-yl)methanone]	< 100	273	≤ 1	
CN(C(=O)c1cc2c(cc1Br)nc(N)c1cncn12)[C@@H]1COc2cc(C(F)(F)F)ccc21 [Fg-48, (S)-4-amino-7-bromo-N-methyl-N-(6-(trifluoromethyl)-2,3-dihydrobenzofuran-3-yl)imidazo[1,5-a]quinoxaline-8-carboxamide]	< 100	94	≤ 1	
C#Cc1cc2nc(N)c3cncn3c2cc1C(=O)N(C)[C@@H]1COc2cc(C(F)(F)F)ccc21 [Fg-49, (S)-4-amino-7-ethynyl-N-methyl-N-(6-(trifluoromethyl)-2,3-dihydrobenzofuran-3-yl)imidazo[1,5-a]quinoxaline-8-carboxamide]	< 100	70	≤ 1	
Nc1nc2cc(Br)c(C(=O)N3CCC[C@@H]4Oc5cc(C(F)(F)F)ccc5[C@@H]43)cc2n2cncc12 [Fg-50, (4-amino-7-bromoimidazo[1,5-a]quinoxalin-8-yl)((4aS,9bS)-7-(trifluoromethyl)-3,4,4a,9b-tetrahydrobenzofuro[3,2-b]pyridin-1(2H)-yl)methanone]	< 100	47	≤ 1	
C=Cc1cc2nc(N)c3cncn3c2cc1C(=O)N(C)[C@@H]1COc2cc(C(F)(F)F)ccc21 [Fg-51, (S)-4-amino-N-methyl-N-(6-(trifluoromethyl)-2,3-dihydrobenzofuran-3-yl)-7-vinylimidazo[1,5-a]quinoxaline-8-carboxamide]	< 100	319	1 to 5	
C[C@H]1C[C@@H]2Oc3cc(OC(F)(F)F)ccc3[C@@H]2N(C(=O)c2cc3c(cn2)nc(N)c2cncn23)C1 [Fg-54, (4-aminoimidazo[1,5-a]pyrido[3,4-e]pyrazin-8-yl)((3S,4aS,9bS)-3-methyl-7-(trifluoromethoxy)-3,4,4a,9b-tetrahydrobenzofuro[3,2-b]pyridin-1(2H)-yl)methanone]	< 100	69	≤ 1	
[2H]C1([2H])CC[C@@H]2Oc3cc(OC(F)(F)F)ccc3[C@@H]2N1C(=O)c1cc2c(cn1)nc(N)c1cncn12 [Fg-59, (4-aminoimidazo[1,5-a]pyrido[3,4-e]pyrazin-8-yl)((4aS,9bS)-7-(trifluoromethoxy)-3,4,4a,9b-tetrahydrobenzofuro[3,2-b]pyridin-1(2H)-yl-2,2-d2)methanone]	< 100	208	≤ 1	
